{
  "source": "paper PMC7673371",
  "about": "“Real-Time Parallel Artificial Membrane Permeability Assay Based on Supramolecular Fluorescent Artificial Receptors” (Frontiers in Chemistry, 2020)",
  "key": {"[1]": {"assay": "RT-PAMPA with BE•CB7 as FAR, Avanti PAMPA lipid layer", "type": "in vitro ADME", "settings": "berberine∙cucurbit[7]uril reporter pair, analyte in water"}, "[2]": {"assay": "RT-PAMPA with MDAP∙CB8 fluorescent receptor and Avanti lipid", "procedure": "Analyte solutions were prepared at 1 mmol/L in Millipore water or cosolvents as indicated. The MDAP∙CB8 reporter pair solution contained 5 μmol/L of MDAP and 6 μmol/L of CB8 that were dissolved in Millipore water. Two lipid solutions were used, including the commercial Avanti PAMPA lipid blend I and the self-prepared 2% DOPC in dodecane. To proceed with the assay, 5 μL of the lipid solution was pipetted to the microporous filter and allowed to impregnate evenly; 300 μL of the analyte solution was transferred to the lower donor well, and 100 μL of the reporter pair solution was transferred to the upper acceptor well. The acceptor plate was combined with the donor plate after the solutions had been loaded to define the start point of the assay. Fluorescence readings were taken on a Jasco FP-8500 fluorimeter equipped with a microplate reader with an excitation wavelength at 418 nm and monitored at an emission wavelength of 449 nm.\nRT-PAMPA and fluorescence titration experiments were conducted on a Jasco FP-8500 fluorimeter with an attached microplate reader. For RT-PAMPA, the analytes were prepared at 1 mmol/l, while the FARs, including MDAP•CB8 and berberine•cucurbit[7]uril (BE•CB7), were prepared at 5 μmol/l.\nIn the first step, 5 μl of the lipid solution (Avanti PAMPA Blend I or 2% DOPC) was loaded on the microporous bottom of the acceptor well and allowed to disperse evenly. Subsequently, 100 μl of the FAR solution was loaded in the acceptor well, and 300 μl of the analyte solution was loaded into the donor well. Immediately after the solutions were loaded, the two plates were combined with the acceptor plate on top and the donor plate at the bottom. Fluorescence intensity was recorded at 449 nm with an excitation wavelength of 418 nm for the MDAP•CB8 experiments and recorded at 500 nm with an excitation wavelength of 342 nm for the BE•CB7 experiments. For the titration experiments, 2.5 ml of the 1 μmol/l MDAP•CB8 solution was placed into a 1-cm length quartz cuvette, followed by gradual addition of the indole solution. The solution was excited at 418 nm and the fluorescence spectra were recorded upon each addition of the indole solution. The fluoresc ence decrease at 449 nm was fitted with a 1:l binding model in order to obtain the binding constants of the MDAP•CB8•indole […]\n2 Blank control experiments […]\n5 Calculation of permeability\nThe effective permeability (Pe) of an analyte was calculated with the below equation (Wohnsland and […]\nlogP = log {−C × ln (1 − [analyte]acceptor )}\nBased on the principle of the RT-PAMPA, the concentration of analyte in the acceptor well ([analyte]acceptor) and the concentration at equilibrium ([analyte]equilibrium) were obtained with the below equations, with the knowledge of the fluorescence intensity of the acceptor well and the binding constant of the ternary MDAP•CB8•analyte complex. It should be noted that the retention of analyte in the lipid layer was not taken into account.\n[analyte]acceptor = [analyte]complex + [analyte]free\n= IA − IG × [G ] + IA − IG […]\n[analyte] = A G × [G ] + IGA − IG […]\nIA: fluorescence intensity of the acceptor well at the chosen time point; IG: initial fluorescence intensity of the acceptor well;\nIGA: fluorescence intensity of the ternary complex;\n[G0]: initial concentration of FAR in the acceptor well;\n[A0]: initial concentration of analyte in the donor well;\nVA: volume of the solution in the acceptor well;\nVD: volume of the solution in the donor well;\nKa: binding constant of the ternary MDAP•CB8•analyte complex."}, "[3]": {"settings": "not told; cited from earlier work"}, "[4]": {"assay": "RT-PAMPA with MDAP∙CB8 fluorescent receptor and 2% DOPC lipid", "type": "in vitro ADME", "settings": "RT-PAMPA conditions, 2% DOPC in dodecane", "procedure": "with an attached microplate reader.\nSubsequently, 100 μl of the\nFluorescence intensity was recorded at 449 nm\nFor the titration experiments,\ngradual addition of the indole solution.\nwere recorded upon each addition of the indole solution. The fluoresc ence decrease at 449 nm was\n2 Blank control experiments"}, "[5]": {"settings": "1 mmol/L analyte in donor well, MDAP∙CB8 in acceptor well, Avanti lipid, compared with absence of analyte"}, "[6]": {"settings": "RT-PAMPA, fast = sharp fluorescence drop in initial several minutes, slow = response on time scale of several hours"}},
  "note": "“Also recorded” adds a separate entry of the source.",
  "data": [
    {"smiles": "OC12CC3CC(CC(C3)C1)C2", "note": "[1-adamantanol]", "values": [
      {"measurement": "fluorescence response indicative of effective permeation", "setting": "[1]", "result": "strong fluorescence response"}
    ]},
    {"smiles": "N[C@@H](Cc1ccccc1)C(=O)O", "note": "[L-Phenylalanine]", "values": [
      {"measurement": "fluorescence response indicative of analyte permeation through the lipid layer", "setting": "[2]; [5]", "result": "no significant fluorescence response"}
    ]},
    {"smiles": "NC(=O)[C@@H](N)Cc1c[nH]c2ccccc12", "note": "[L-tryptophanamide]", "values": [
      {"measurement": "permeability coefficient (logPe)", "setting": "[3]", "result": "−5.56"},
      {"measurement": "fluorescence response indicative of analyte permeation through the lipid layer", "setting": "[2]; PAMPA", "result": "significant fluorescence responses"},
      {"measurement": "permeation characteristics (fast or slow) from the permeation curves", "setting": "[2]; PAMPA", "result": "slowly permeating"}
    ]},
    {"smiles": "O=c1ccc2ccccc2o1", "note": "[coumarin]", "values": [
      {"measurement": "fluorescence response indicative of analyte permeation through the lipid layer", "setting": "[2]; [5]", "result": "significant fluorescence responses"},
      {"measurement": "permeation characteristics (fast or slow) from the permeation curves", "setting": "[2]; [6]", "result": "Fast permeation"}
    ]},
    {"smiles": "CN(C)CCC=C1c2ccccc2COc2ccccc21", "note": "[doxepin]", "values": [
      {"measurement": "fluorescence response indicative of analyte permeation through the lipid layer", "setting": "[2]; [5]", "result": "no significant fluorescence response"}
    ]},
    {"smiles": "c1ccc2[nH]ccc2c1", "note": "[indole]", "values": [
      {"measurement": "fluorescence response indicative of analyte permeation through the lipid layer", "setting": "[2]; [5]", "result": "significant fluorescence responses"},
      {"measurement": "permeation characteristics (fast or slow) from the permeation curves", "setting": "[2]; [6]", "result": "Fast permeation"},
      {"measurement": "log Pe", "setting": "[2]; indole 0.010 mmol/l, time 0.15 h", "result": "–4.55"},
      {"measurement": "log Pe", "setting": "[2]; indole 0.010 mmol/l, time 0.30 h", "result": "–4.67"},
      {"measurement": "log Pe", "setting": "[2]; indole 0.010 mmol/l, time 0.45 h", "result": "–4.59"},
      {"measurement": "log Pe", "setting": "[2]; indole 0.010 mmol/l, time 0.58 h", "result": "–4.52"},
      {"measurement": "log Pe", "setting": "[2]; indole 0.010 mmol/l, time 0.73 h", "result": "–4.53"},
      {"measurement": "log Pe", "setting": "[2]; indole 0.010 mmol/l, time 0.87 h", "result": "–4.52"},
      {"measurement": "log Pe", "setting": "[2]; indole 0.010 mmol/l, time 1.43 h", "result": "–4.55"},
      {"measurement": "log Pe", "setting": "[2]; indole 0.010 mmol/l, time 1.85 h", "result": "–4.59"},
      {"measurement": "log Pe", "setting": "[2]; indole 0.1 mmol/l, time 0.15 h", "result": "–4.70"},
      {"measurement": "log Pe", "setting": "[2]; indole 0.1 mmol/l, time 0.30 h", "result": "–4.72"},
      {"measurement": "log Pe", "setting": "[2]; indole 0.1 mmol/l, time 0.45 h", "result": "–4.74"},
      {"measurement": "log Pe", "setting": "[2]; indole 0.1 mmol/l, time 0.58 h", "result": "–4.73"},
      {"measurement": "log Pe", "setting": "[2]; indole 0.1 mmol/l, time 0.73 h", "result": "–4.74"},
      {"measurement": "log Pe", "setting": "[2]; indole 0.1 mmol/l, time 0.87 h", "result": "–4.72"},
      {"measurement": "log Pe", "setting": "[2]; indole 0.1 mmol/l, time 1.43 h", "result": "–4.81"},
      {"measurement": "log Pe", "setting": "[2]; indole 0.1 mmol/l, time 1.85 h", "result": "–4.87"},
      {"measurement": "log Pe", "setting": "[2]; indole 1.0 mmol/l, time 0.15 h", "result": "–5.15"},
      {"measurement": "log Pe", "setting": "[2]; indole 1.0 mmol/l, time 0.30 h", "result": "–5.09"},
      {"measurement": "log Pe", "setting": "[2]; indole 1.0 mmol/l, time 0.45 h", "result": "–5.17"},
      {"measurement": "log Pe", "setting": "[2]; indole 1.0 mmol/l, time 0.58 h", "result": "–5.21"},
      {"measurement": "log Pe", "setting": "[2]; indole 1.0 mmol/l, time 0.73 h", "result": "–5.28"},
      {"measurement": "log Pe", "setting": "[2]; indole 1.0 mmol/l, time 0.87 h", "result": "–5.32"},
      {"measurement": "log Pe", "setting": "[2]; indole 1.0 mmol/l, time 1.43 h", "result": "–5.49"},
      {"measurement": "log Pe", "setting": "[2]; indole 1.0 mmol/l, time 1.85 h", "result": "–5.59"}
    ]},
    {"smiles": "Cc1c(OCC(F)(F)F)ccnc1C[S+]([O-])c1nc2ccccc2[nH]1", "note": "(stereo not shown) [lansoprazole]", "values": [
      {"measurement": "fluorescence response indicative of analyte permeation through the lipid layer", "setting": "[2]; [5]", "result": "significant fluorescence responses"},
      {"measurement": "permeation characteristics (fast or slow) from the permeation curves", "setting": "[2]; [6]", "result": "slowly permeating"}
    ]},
    {"smiles": "CCC(=O)Nc1ccc(Cl)c(Cl)c1", "note": "[propanil]", "values": [
      {"measurement": "fluorescence response indicative of analyte permeation through the lipid layer", "setting": "[2]; [5]", "result": "significant fluorescence responses"},
      {"measurement": "permeation characteristics (fast or slow) from the permeation curves", "setting": "[2]; [6]", "result": "Fast permeation"}
    ]},
    {"smiles": "NCCc1c[nH]c2ccc(O)cc12", "note": "[serotonin]", "values": [
      {"measurement": "fluorescence response indicative of analyte permeation through the lipid layer", "setting": "[2]; [5]", "result": "no significant fluorescence response"}
    ]},
    {"smiles": "c1ccc2[nH]c(-c3cscn3)nc2c1", "note": "[thiabendazole]", "values": [
      {"measurement": "influence of organic cosolvent in donor well on permeation curves", "setting": "[2]; 0.1 mmol/L in 2 and 20% ethanol, initial hour", "result": "overlapped"},
      {"measurement": "fluorescence response indicative of analyte permeation through the lipid layer", "setting": "[2]; [5]", "result": "significant fluorescence responses"},
      {"measurement": "permeation characteristics (fast or slow) from the permeation curves", "setting": "[2]; [6]", "result": "Fast permeation"}
    ]},
    {"smiles": "O=c1ccc2ccc(O)cc2o1", "note": "[umbelliferone]", "values": [
      {"measurement": "permeation through the 2% DOPC lipid", "setting": "[4]", "result": "did not permeate to a significant extent"},
      {"measurement": "fluorescence response indicative of analyte permeation through the lipid layer", "setting": "[2]; [5]", "result": "significant fluorescence responses; also recorded: appreciable permeability"},
      {"measurement": "permeation characteristics (fast or slow) from the permeation curves", "setting": "[2]; [6]", "result": "slowly permeating"}
    ]},
    {"smiles": "CN(C)CCc1c[nH]c2ccc(C[C@H]3COC(=O)N3)cc12", "note": "[zolmitriptan]", "values": [
      {"measurement": "fluorescence response indicative of analyte permeation through the lipid layer", "setting": "[2]; [5]", "result": "no significant fluorescence response"}
    ]}
  ]
}
